# Results as given in US8492567B2, “(Poly)Aminoalkylaminoalkylamide, alkyl-urea, or alkyl-sulfonamide derivatives of epipodophyllotoxin, a process for preparing them, and application thereof in therapy as anticancer agents” (Pierre Fabre Medicament, priority 2008, dated 2013).
# Counter-ions that a name gives are not always drawn.
# How the values were obtained:
# [1] = tested on: A549 human line (non-small cell lung cancer); experiment: Cytotoxicity test: cell growth inhibition of the A549 human line (ATP-lite luminescence); type: cell-based; conditions: A549 cells, 48 hrs incubation with compound, read-out: IC50 (concentration providing a 50% inhibition of cell proliferation)
# Protocol: A cytotoxicity test is used. It measures the cell growth inhibition of the A549 human line (non-small cell lung cancer):
# The A549 tumor cells are plated in a 96-well plate in RPMI 1640 medium free of phenol red (Seromed) to which is added 5% of fetal calf serum (100 μl/well, 1.25×10^4 cells/ml). After incubation for 24 hrs at 37° C. in an incubator at 5% CO2, the medium is replaced by that containing the compound to be tested, followed by incubation of the plates for another 48 hrs. Cell survival is assessed by measuring the luminescence after salting-out of the ATP from the medium using the cell lysis, luciferase and luciferine solutions included in the ATP-lite-M™ kit following the manufacturer's guidelines (Packard, Rungis, France). Each experimental condition was tested at least three times in sixplicate.
# P388 murine leukemia = experiment: Experimental P388 tumor model, survival of mice; type: in vivo; conditions: dose of 0.16 mg/kg
# From the text: Experimental P388 tumor model. The model used is P388 murine leukemia (Tumor Models in Cancer Research. Teicher, B. A. ed., Humana Press Inc., Totowa, N.J. Pp. 23-40, 2002), which is maintained by sequential intraperitoneal transplantations in DBA/2 mice (DBA/2JIco mice, Charles River), as previously disclosed (Classic in vivo cancer models: Three examples of mouse models used in experimental therapeutics. Current Protocols in Pharmacology Unit 5.24: 5.24.1-5.24.16, 2001).
# The experiment is carried out according to a previously disclosed protocol (Cancer Chemother. Pharmacol. 1998, 41, 437-447). This comprises implanting 10^6 P388 leukemia cells per mouse into C2DF1 hybrid mice (CD2F1/CrlBR, Charles River, St Aubin-les-Elbeuf, France) intravenously at day zero. After the animals have been randomized in treatment and control cages, the compounds to be tested are administered in one single injection by intraperitoneal route the day after the tumor transplantation, at day 1. The animals are then monitored every day, weighed twice per week, and any clinical reaction is recorded. The survival rate is the parameter used to assess antitumor activity. […] The T/Csurvival ratio is calculated for each dosage and the largest value obtained represents the maximum increase in survival rate achieved (maximum activity), which is defined as the optimum T/Csurvival ratio.
structure (smiles),measurement,setting,value
COc1cc(C2c3cc4c(cc3[C@@H](NC(=O)CCCN)[C@H]3COC(=O)[C@H]23)OCO4)cc(OC)c1O (stereo in doubt) (as salt: hydrochloride),melting point,,284 °C
"COc1cc(C2c3cc4c(cc3[C@@H](NC(=O)NCCCNCCCCNCCCN)[C@H]3COC(=O)[C@H]23)OCO4)cc(OC)c1O (stereo partly drawn) [Compound 48, 1-{3-[4-(3-Aminopropylamino)-butylamino]-propyl}-3-[9-(4-hydroxy-3,5-dimethoxyphenyl)-8-oxo-5,5a,6,8,8a,9-hexahydrofuro[3′,4′:6,7]-naphtho[2,3-d][1,3]dioxol-5-yl]-urea]",IC50,[1],12 nM
COc1cc(C2c3cc4c(cc3[C@@H](NC(=O)CCCN(C)C)[C@H]3COC(=O)[C@H]23)OCO4)cc(OC)c1O (stereo in doubt) (as salt: hydrochloride),melting point,,169 °C
COc1cc(C2c3cc4c(cc3[C@@H](NS(=O)(=O)CCNCCCNCCCCNCCCN)[C@H]3COC(=O)[C@H]23)OCO4)cc(OC)c1O (stereo partly drawn) (as salt: hydrochloride),melting point,,191 °C
"COc1cc(C2c3cc4c(cc3[C@@H](NC(=O)CCCNCCCNCCCCNCCCN)[C@H]3COC(=O)[C@H]23)OCO4)cc(OC)c1O (stereo partly drawn) [Compound 21, 4-{3-[4-(3-Aminopropylamino)-butylamino]-propylamino}-N-[9-(4-hydroxy-3,5-dimethoxyphenyl)-8-oxo-5,5a,6,8,8a,9-hexahydrofuro[3′,4′:6,7]-naphtho[2,3-d][1,3]dioxol-5-yl]-butyramide]",IC50,[1],1.7 nM
same,optimum T/Csurvival value,"P388 murine leukemia; single intraperitoneal injection at day 1, 10^6 P388 cells intravenously at day 0, mice",186%
same,increase in survival rate of the animals,"P388 murine leukemia; single intraperitoneal injection at day 1, P388 leukemia mice",86%
COc1cc(C2c3cc4c(cc3[C@@H](NC(=O)NCCCNCCCNCCCCNCCCN)[C@H]3COC(=O)[C@H]23)OCO4)cc(OC)c1O (stereo in doubt),melting point,,213 °C
"COc1cc(C2c3cc4c(cc3[C@@H](NC(=O)NCCCNCCCCNCCCN)[C@H]3COC(=O)[C@H]23)OCO4)cc(OC)c1O (stereo partly drawn) (as salt: hydrochloride) [Compound 48, 1-{3-[4-(3-Aminopropylamino)-butylamino]-propyl}-3-[9-(4-hydroxy-3,5-dimethoxyphenyl)-8-oxo-5,5a,6,8,8a,9-hexahydrofuro[3′,4′:6,7]-naphtho[2,3-d][1,3]dioxol-5-yl]-urea]",melting point,,166 °C
